Assay results published in patent US20080145313A1, “Compositions and Methods for the Treatment and Prevention of Neoplastic Disorders” (Genesis Research & Development Corporation Limited, priority 2006, published 2008).

Legend:
A549 cells = test: Growth inhibition of siRNA-transfected A549 cells, SYBR Green I DNA content; assay type: cell-based, human; settings: A549 cells, 10 nM siRNA, DNA content 96 hours after transfection, transporter gene targets
Summary of the method: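 Growth read-out: cellular DNA quantified with SYBR Green I (485/535 nm) 96 h after transfection, cells frozen, thawed and lysed in PBS/1% Triton X-100, pH 7. Cells (A549, 5×10^3 cells/cm^2) received 10 nM siRNA by RNAiMAX; non-specific siRNA served as control; triplicate wells averaged.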

[1] = system: target transcript mRNA in A549 cells; test: Level of mRNA of target transcript in A549 cells by quantitative RT-PCR (Tables 12 and 13); assay type: cell-based, human; settings: 24 h post-transfection; for mRNA knockdown of transporter gene target transcript, 0.1 nM: 0.1 nM siRNA; for mRNA knockdown of transporter gene target transcript, 1 nM: 1 nM siRNA
Summary of the method: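 Target mRNA was measured by SYBR Green quantitative RT-PCR using random-primed cDNA, normalised to HPRT and Lamin. Samples came from A549 cells 24 h post-transfection with 0.1, 1.0 or 10 nM siRNA.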

Row | Substance | Growth Inhibition in A549 cells by 10 nM siRNA (A549 cells) | mRNA knockdown of transporter gene target transcript, 0.1 nM [1] | mRNA knockdown of transporter gene target transcript, 1 nM [1]
1 | SEQ ID NO: 4954: siRNA targeting ATP6V1B2 (chain 1 TTTGGATTTCTTTACCAAACCAGCC; chain 2 UUUGGAUUUCUUUACCAAACCAGCC; chemistry not given here; one strand in two spellings) | − (no growth inhibition) | + (50-70% mRNA knockdown) | + (50-70% mRNA knockdown)
2 | SEQ ID NO: 4955: siRNA targeting ATP6V1C1 (chain 1 TTGATTGGATATTTGGCCATGTCCC; chain 2 UUGAUUGGAUAUUUGGCCAUGUCCC; chemistry not given here; one strand in two spellings) | − (no growth inhibition) | + (50-70% mRNA knockdown) | ++ (70-90% mRNA knockdown)
3 | SEQ ID NO: 4956: siRNA targeting ATP6V1C1 (chain 1 TAGACTTCTAGTTAGCAAACTTCCT; chain 2 UAGACUUCUAGUUAGCAAACUUCCU; chemistry not given here; one strand in two spellings) | − (no growth inhibition) | ++ (70-90% mRNA knockdown) | ++ (70-90% mRNA knockdown)
4 | SEQ ID NO: 4957: siRNA targeting ATP6V1C1 (chain 1 TAGACCTTGGAACTACCATTTCGGC; chain 2 UAGACCUUGGAACUACCAUUUCGGC; chemistry not given here; one strand in two spellings) | − (no growth inhibition) | ++ (70-90% mRNA knockdown) | ++ (70-90% mRNA knockdown)
5 | SEQ ID NO: 4958: siRNA targeting ATP6V1E1 (chain 1 AGGAATTGCCTTCTGCACTGCAGCC; chain 2 AGGAAUUGCCUUCUGCACUGCAGCC; chemistry not given here; one strand in two spellings) | − (no growth inhibition) | + (50-70% mRNA knockdown) | 
6 | SEQ ID NO: 4959: siRNA targeting ATP6V1E1 (chain 1 TGGTCAATTTGGACATCAACATCGT; chain 2 UGGUCAAUUUGGACAUCAACAUCGU; chemistry not given here; one strand in two spellings) | − (no growth inhibition) | − (<50% mRNA knockdown) | ++ (70-90% mRNA knockdown)
7 | SEQ ID NO: 4960: siRNA targeting ATP6V1E1 (chain 1 TGGCATTTGCACCAAACAAGGCTCC; chain 2 UGGCAUUUGCACCAAACAAGGCUCC; chemistry not given here; one strand in two spellings) | − (no growth inhibition) | − (<50% mRNA knockdown) | + (50-70% mRNA knockdown)
8 | SEQ ID NO: 4961: siRNA targeting ATP6V1F (chain 1 ATGTCATCCCGGTTTAGAAATTGCC; chain 2 AUGUCAUCCCGGUUUAGAAAUUGCC; chemistry not given here; one strand in two spellings) | − (no growth inhibition) | ++ (70-90% mRNA knockdown) | ++ (70-90% mRNA knockdown)
9 | SEQ ID NO: 4962: siRNA targeting ATP6V1F (chain 1 TGGAGTCCTTGGCGGCGTCATATGG; chain 2 UGGAGUCCUUGGCGGCGUCAUAUGG; chemistry not given here; one strand in two spellings) | − (no growth inhibition) | − (<50% mRNA knockdown) | + (50-70% mRNA knockdown)
10 | SEQ ID NO: 4963: siRNA targeting ATP6V1F (chain 1 TAGCGCAGGTCTTCGGCAGTGAACA; chain 2 UAGCGCAGGUCUUCGGCAGUGAACA; chemistry not given here; one strand in two spellings) | − (no growth inhibition) | ++ (70-90% mRNA knockdown) | ++ (70-90% mRNA knockdown)
11 | SEQ ID NO: 4964: siRNA targeting ATP7A (chain 1 TAACCATCATATATATCATCAGCCC; chain 2 UAACCAUCAUAUAUAUCAUCAGCCC; chemistry not given here; one strand in two spellings) | − (no growth inhibition) | − (<50% mRNA knockdown) | − (<50% mRNA knockdown)
12 | SEQ ID NO: 4965: siRNA targeting ATP7A (chain 1 TTATAATGCAGTGTCATCATCTTCC; chain 2 UUAUAAUGCAGUGUCAUCAUCUUCC; chemistry not given here; one strand in two spellings) | − (no growth inhibition) | − (<50% mRNA knockdown) | − (<50% mRNA knockdown)
13 | SEQ ID NO: 4966: siRNA targeting ATP7A (chain 1 ATAGCTCCCAATTTGAGGTACTTGG; chain 2 AUAGCUCCCAAUUUGAGGUACUUGG; chemistry not given here; one strand in two spellings) | − (no growth inhibition) | − (<50% mRNA knockdown) | − (<50% mRNA knockdown)
14 | SEQ ID NO: 4967: siRNA targeting ATP7B (chain 1 AATTCTGGTTAGCAGAAGATAAAGG; chain 2 AAUUCUGGUUAGCAGAAGAUAAAGG; chemistry not given here; one strand in two spellings) | + (inhibits by at least 50%) | − (<50% mRNA knockdown) | − (<50% mRNA knockdown)
15 | SEQ ID NO: 4968: siRNA targeting ATP7B (chain 1 ATATCCCGTGGACCGATAATTTCCG; chain 2 AUAUCCCGUGGACCGAUAAUUUCCG; chemistry not given here; one strand in two spellings) | − (no growth inhibition) | − (<50% mRNA knockdown) | ++ (70-90% mRNA knockdown)
16 | SEQ ID NO: 4969: siRNA targeting ATP7B (chain 1 AAGGGAGCCACTTTGCTCTTGATGG; chain 2 AAGGGAGCCACUUUGCUCUUGAUGG; chemistry not given here; one strand in two spellings) | − (no growth inhibition) | − (<50% mRNA knockdown) | ++ (70-90% mRNA knockdown)
17 | SEQ ID NO: 4970: siRNA targeting ABCC4 (MRP4) (chain 1 AATCTTGGAAATCTCCTTCTTTCTC; chain 2 AAUCUUGGAAAUCUCCUUCUUUCUC; chemistry not given here; one strand in two spellings) | − (no growth inhibition) | ++ (70-90% mRNA knockdown) | ++ (70-90% mRNA knockdown)
18 | SEQ ID NO: 4971: siRNA targeting ABCC4 (MRP4) (chain 1 CAATAATGGTGTTCAATCTGTGTGC; chain 2 CAAUAAUGGUGUUCAAUCUGUGUGC; chemistry not given here; one strand in two spellings) | − (no growth inhibition) | − (<50% mRNA knockdown) | ++ (70-90% mRNA knockdown)
19 | SEQ ID NO: 4972: siRNA targeting ABCC4 (MRP4) (chain 1 AAATAGTTAAGGTCGAGGGCTGTCC; chain 2 AAAUAGUUAAGGUCGAGGGCUGUCC; chemistry not given here; one strand in two spellings) | − (no growth inhibition) | − (<50% mRNA knockdown) | ++ (70-90% mRNA knockdown)
20 | SEQ ID NO: 4973: siRNA targeting ABCC5 (MRP5) (chain 1 TAAGATGGCAACAACGGGTCCTCCA; chain 2 UAAGAUGGCAACAACGGGUCCUCCA; chemistry not given here; one strand in two spellings) | − (no growth inhibition) | − (<50% mRNA knockdown) | − (<50% mRNA knockdown)
